The subject of data set [1] is ICR mice fed on a high fat diet. Kind of data set: Oral glucose tolerance test (OGTT) in glucose load mice fed on a high fat diet. In kind it is in vivo. The settings on record: blood glucose AUC, high fat diet ICR male mice, single oral dose 40 mg/kg. On the procedure:
ICR mice fed on a high fat diet were used as test animals. The effect of oral administration of a single dose of the compounds of the present disclosure on oral glucose tolerance test (OGTT) of glucose load mice was studied.
Compounds of Example 1, Example 2, Example 13, Example 16, Example 18, Example 19 and Example 26
Healthy ICR male mice were purchased from SINO-BRITSH SIPPR/BK LAB. ANIMAL LTD., CO, License number: SCXK (Shanghai) 2008-0016
The test compounds were added to aqueous 0.5% CMC-Na solution to prepare the corresponding concentration suspension using microwave.
After an overnight fast for 16 hours, male mice fed on a high fat diet were weighed, and the basic blood glucose was determined. The mice were randomly divided into a Blank group and the group of each test compound of the present disclosure according to the level of blood glucose.
The dosage of administration was 20 mg/kg or 40 mg/kg, and the Blank group was administered aqueous 0.5 CMC-Na solution.
20% Glucose solution was administered 15 minutes after intragastrical administration (each mouse was administered 0.4 mL)
The compounds were administered according to the aforesaid dosage to determine the blood glucose value (−15 minutes).
At 15 minutes after administration, 20% glucose solution was administrated at a dose of 2 g/kg and the blood glucose values at 0, 15, 30, 45, 60 and 120 minutes in each mouse were determined by Roche Accu-Chek blood glucose monitoring meter.
Using Excel statistical software: the average value was calculated with avg; SD value was calculated with STDEV; and P value of difference among groups was calculated with TTEST. • AUC calculation formula: AUC=(t15min+t0min)×0.25/2+(t30min+t15min)×0.25/2+(t45min+t30min)×0.25/2+(t60min+t45min)×0.25/2+(t120min+t60min)×1/2 • Wherein t0min, t15min, t30min, t45min, t60min, t120min were blood glucose values determined at different time points.

The target of another data set is T1, GPR40 (Homo sapiens, UniProt O14842).
T1 construct: host or cells: CHO-K1 (Cell bank of the Chinese Academy of Sciences, GNHa 7), retrovirus infection
Kind of data set: Agonist activity on CHO-K1/GPR40 cell (Fluo-4 calcium fluorescence). It is filed as cell-based. The settings on record: CHO-K1 cell line expressing GPR40, calcium ion fluorescence. From the text:
Agonist activity of compounds of the present disclosure on CHO-K1/GPR40 cell.
The following method was used to determine the agonist activity of compounds of the present disclosure on GPR40. The experiment process is described as follows:
CHO-K1/GPR40 cell (CHO-K1 cell line expressing GPR40, which was constructed using retrovirus infection method, CHO-K1/GPR40 cell for short, wherein CHO-K1 cell was purchased from Cell bank of the Chinese Academy of Sciences, catalogue number GNHa 7; GPR40 cDNA was purchased from Guangzhou FulenGen Co., Ltd, catalogue number EX-UO270-MO2) was inoculated in a 96-well plate with an inoculation density of 25000 cells/well. The cell plate was incubated at 37° C. and 5% CO2 for 24 hours. The cell culture fluid was discarded during the experiment, the cells were washed with buffer solution (1×HBSS+20 mM HEPES pH 7.4) once, 100 μL of Fluo-4 calcium ion dye was quickly added into each well, incubated at 37° C. in the dark for 30 minutes, and then at room temperature for another 30 minutes. During the determination, the baseline value of each well was read at first, and then different concentrations of drug were added to the wells (50 μL/well), and the fluorescence values were then read. The fluorescence excitation wavelength was 494 nm and the emission wavelength was 516 nm. The increase of fluorescence intensity was proportional to calcium ion level in the cells. Cell response rate of each cell/(The maximum fluorescence value−The minimum fluorescence value)/The minimum fluorescence value. EC50 values of the compounds were calculated

The nature of data set [2]: Pharmacokinetics assay in rats after intragastric administration. It is filed as in vivo. The settings on record: for Vd/F / AUC / CL/F / half-life / MRT / Cmax: both sexes, SD, rat, plasma, po, 5 mg/kg; for Vd/F: read-out: Apparent Distribution Volume Vz/F; for AUC: read-out: Area under Curve AUC; for CL/F: read-out: Clearance CL/F (converted); for half-life: read-out: Half-Life t½ (converted); for MRT: read-out: Mean Residence Time MRT; for Cmax: read-out: Plasma Conc. Cmax. As to the method:
The compounds of the present invention were administered intragastrically to determine the drug concentration in plasma at different time points. The pharmacokinetic behavior of the compounds of the present invention was studied and evaluated in rats.
Compounds of Example 1, Example 2, Example 13 and Example 30
16 healthy adult SD rats were divided into 4 groups with 4 in each group, half male and half female. Rats were purchased from SINO-BRITSH SIPPR/BK LAB. ANIMAL LTD., CO, License number: SCXK (Shanghai) 2008-0016
The appropriate amount of test compounds were weighed and added to 0.5% sodium carboxymethyl cellulose to prepare a 0.5 mg/mL suspension using microwave.
After an overnight fast, the rats were administered intragastrically a dose of 5.0 mg/kg, at an administration volume of 10 mL/kg. Blood samples were taken before administration and after administration at different time points over 24.0 hours, using heparin as an anticoagulant. The separated plasma samples were stored at −20° C. The rats were fed 2 hours after administration.
Blood samples (0.1 mL) were taken before administration and at 1.0, 2.0, 3.0, 4.0, 6.0, 8.0, 11.0, 24.0 and 48.0 hours after administration, which were stored in heparinized tubes and centrifuged for 5 minutes at 3,500 rpm to separate blood plasma. The plasma samples were stored at −20° C. The rats were fed 2 hours after administration.
The content of the different test compounds in rat plasma samples after the intragastric administration was determined by LC/MS/MS method. The linearity of the method is 1.00˜2000 ng/ml. The blood sample was analyzed after protein precipitation was accomplished by the addition of methanol.

T1 sequence (O14842 whole entry): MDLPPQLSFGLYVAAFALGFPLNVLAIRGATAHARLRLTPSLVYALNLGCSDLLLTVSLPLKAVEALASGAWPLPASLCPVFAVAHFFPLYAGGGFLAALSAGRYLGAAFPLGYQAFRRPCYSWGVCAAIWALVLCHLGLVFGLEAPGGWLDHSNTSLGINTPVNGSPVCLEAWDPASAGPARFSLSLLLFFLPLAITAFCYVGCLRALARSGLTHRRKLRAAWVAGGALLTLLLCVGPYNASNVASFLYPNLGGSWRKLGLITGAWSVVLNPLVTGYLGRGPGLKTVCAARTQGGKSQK

The EC50 is the concentration at which the effect is half-maximal. As a reminder, the AUC is concentration integrated over time. A word on the half-life: it is the time needed for the level to fall by half in the phase considered. The term MRT denotes the average time that molecules of a dose stay in the body. One may read the Cmax as the maximum level reached in the sampled fluid or tissue. As for `Cc1cc(O[C@H]2CCOC2)cc(C)c1-c1cccc(COc2ccc3c(c2)OC[C@H]3CC(=O)O)c1` [Example 1, 2-((S)-6-((2′,6′-Dimethyl-4′-(((S)-tetrahydrofuran-3-yl)oxy)biphenyl-3-yl)methoxy)-2,3-dihydrobenzofuran-3-yl)acetic acid], the “AUC decrease rate %” value in data set [1] was 36.08%. Also, the EC50 on GPR40 is 31 nM. Besides, in data set [2], the Vd/F was 3.39 ± 1.24 L/kg, the AUC turned out to be 21600 ± 8620 ng·h/mL, the CL/F was 4 mL/min/kg and the half-life is 10.1 ± 3.3 h. In data set [2], the MRT was 14.5 ± 4.7 h and the Cmax came to 1690 ± 698 ng/mL.
For the molecule `Cc1cc(O[C@@H]2COC[C@H]2O)cc(C)c1-c1cccc(COc2ccc3c(c2)OC[C@H]3CC(=O)O)c1` [Example 30, 2-((S)-6-((4′-(((3R,4R)-4-hydroxytetrahydrofuran-3-yl)oxy)-2′,6′-dimethylbiphenyl-3-yl)methoxy)-2,3-dihydrobenzofuran-3-yl)acetic acid], the “AUC decrease rate %” value in data set [1] (40 mg/kg) was 29.59%. The EC50 at GPR40 was determined as 34 nM. Further, in data set [2], the Vd/F was determined as 1.88 ± 0.66 L/kg, the AUC stood at 38200 ± 15000 ng·h/mL, the CL/F is 2.33 mL/min/kg and the half-life is 9.35 ± 0.55 h. In addition, in data set [2], the MRT was determined as 13.3 ± 2 h and the Cmax turned out to be 2730 ± 478 ng/mL.
For `Cc1cc(O[C@@H]2CCOC2)cc(C)c1-c1cccc(COc2ccc3c(c2)OC[C@H]3CC(=O)O)c1` [Example 2, 2-((S)-6-((2′,6′-Dimethyl-4′-(((R)-tetrahydrofuran-3-yl)oxy)biphenyl-3-yl)methoxy)-2,3-dihydrobenzofuran-3-yl)acetic acid], in data set [1], the “AUC decrease rate %” value turned out to be 29.49%. On GPR40, the EC50 came out at 35 nM. Further, in data set [2], the Vd/F was 2.79 ± 0.79 L/kg, the AUC came to 32900 ± 11900 ng·h/mL, the CL/F was 2.5 mL/min/kg and the half-life was 13.4 ± 3.8 h. Further, in data set [2], the MRT came out at 18.9 ± 6 h and the Cmax came to 2010 ± 511 ng/mL.
`Cc1cc(O[C@@H]2COC[C@H]2O)cc(C)c1-c1cccc(COc2ccc3c(c2)OC[C@H]3CC(=O)O)c1` (mixture of isomers) [Example 13, 2-((S)-6-((4′-(((3R,4R)/(3S,4S)-4-Hydroxytetrahydrofuran-3-yl)oxy)-2′,6′-dimethylbiphenyl-3-yl)methoxy)-2,3-dihydrobenzofuran-3-yl)acetic acid]: the “AUC decrease rate %” value in data set [1] (40 mg/kg) stood at 39.71%. For the same molecule, the EC50 at GPR40 was 16 nM. Further, in data set [2] (SD rats, 5 mg/Kg), the “Area under Curve AUC” value came out at 39357 ± 10659 ng·h/mL, the “Clearance CL/F” value is 2.17 ± 0.5 mL/min/kg, the “Half-Life t½” value is recorded as 10.0 ± 0.3 h and the “Mean Residence Time MRT” value was 12.5 ± 1.5 h. Moreover, in data set [2] (SD rats, 5 mg/Kg), the “Plasma Conc. Cmax” value worked out at 3153 ± 482 ng/mL.

For the origin of these results see patent US9139548B2, “Polycyclic derivatives, preparation process and pharmaceutical use thereof” (Jiangsu Hengrui Medicine Co., Ltd., priority 2012, dated 2015).
